Consider seven molecules from patent US20230391726A1, “DIHYDROQUINAZOLINONES AND RELATED ANALOGS FOR INHIBITING YAP/TAZ-TEAD” (THE KATHOLIEKE UNIVERSITEIT LEUVEN, priority 2022, published 2023).

Common to all, as to assay type: cell-based
The subject of assay [1] is YAP/TAZ-TEAD transcription. Description: Reporter gene assay for measuring the inhibition of YAP/TAZ-TEAD transcription (TEAD-responsive element luciferase reporter in Hek293T cells). The settings on record: Homo sapiens, HEK-293T; Hek293T cells transfected with TEAD-responsive element luciferase reporter, 24 hours incubation. How it is done: Hek293T cells are cultured in DMEM supplemented with 10% fetal bovine serum, Sodium pyruvate, Sodium bicarbonate, L-glutamine. The cells are harvested and transiently transfected with TEAD-responsive element luciferase reporter. Transfected cells are plated in 384-wells plate containing pre-diluted compounds. After 24 hours incubation at 37° C./5% CO2, assay plates were cooled down to RT and levelled to an equal volume per well, prior to the addition of 25 uL luciferase substrate SteadyLite (Perkin Elmer)/well. The plate was shaken for 10 min at 600 rpm, centrifuged for 1 min at 500 rpm and measured with an Envision reader (PerkinElmer). The amount of relative light units produced by the TEAD reporter is used to calculated percent of inhibition.
The percent of reporter inhibition was calculated in the presence of a positive control inhibitor (100% inhibition) versus a condition with the presence of the vehicle basal activity of the reporter (0% inhibition). The ability of a test compound to inhibit this activity was determined as:
Percentage inhibition=[1-((RLU determined in the presence of vehicle−RLU determined for sample with test compound present) divided by (RLU determined in the presence of vehicle−RLU determined for sample with positive control inhibitor))]*100
The activities of example compounds tested are depicted in Table 3. The activity ranges A, B and C refer to IC50 values in the reporter gene assay as follows: “A”: IC50<1 μM; “B”: 1 μM≤IC50≤20 μM and “C”: IC50>20 μM; NT=not tested.

The test system of assay [2] is NCl-H2052. Description: Mesothelioma cell line proliferation assay (ATPlite), NCl-H2052. The following applies: Homo sapiens, NCI-H2052, 144 h, NCl-H2052 mesothelioma cells, 6 days incubation. How it is done: (§1) Mesothelioma cell lines, NCl-H226 and NCl-H2052 (all sourced from the ATCC cell culture collection) are plated in 96-well plates (Corning® 96 Well White Polystyrene Microplate clear flat bottom, white polystyrene (TC-Treated)), at 1500 cells/well in full medium (RPMI 1640 ATCC modification with L-glutamine, HEPES, Phenol Red, Sodium Pyruvate, High glucose, Low sodium bicarbonate and 10% fetal bovine serum). Cells are incubated overnight at 37° C. in an incubator with 5% CO2. Then compounds, dissolved in DMSO, are added in dose-response. Cells are incubated with compound dilutions for another 6 days at 37° C. in an incubator with 5% CO2. Cell viability is quantitated using the ATPlite kit (Perkin-Elmer) and the luminescence is read-out using an Envision instrument (Perkin-Elmer). The amount of relative light units produced using the ATPlite kit is used to calculated percent of inhibition.
(§2) The activities of some example compounds are depicted in Table 4. The activity ranges A, B and C refer to EC50 values in the mesothelioma cell line proliferation assay as described as follows: “A”: EC50<1 μM; “B”: 1 μM≤EC50≤10 μM and “C”: EC50>10 μM; NT: not tested.

Assay [3] relates to NCl-H226. Description: Mesothelioma cell line proliferation assay (ATPlite), NCl-H226. The following applies: Homo sapiens, NCI-H226, 144 h, NCl-H226 mesothelioma cells, 6 days incubation. How it is done:
as §1, §2
For orientation: ATP-based viability assays read luminescence as a measure of living cells.

The EC50 is the concentration at which the effect is half-maximal. Lower therefore signals higher potency in that assay.

As to `C=CC(=O)NC1CN(c2ccccc2)c2ccccc2C1=O` (stereo not drawn) [Cpd. No. 7, N-(4-oxo-1-phenyl-1,2,3,4-tetrahydroquinolin-3-yl)acrylamide], in assay [1], the EC50 lay within 1 to 20 µM. Turning to `O=C1NCN(c2ccc(C(F)(F)F)cc2)c2ccccc21` [Cpd. No. 1, 1-(4-(trifluoromethyl)phenyl)-2,3-dihydroquinazolin-4(1H)-one], the EC50 in assay [1] is 1 to 20 µM; in assay [2], greater than 10 µM; in assay [3], greater than 10 µM. `O=C1c2ccccc2N(c2ccc(C(F)(F)F)cc2)CN1CCCO` [Cpd. No. 2, 3-(3-hydroxypropyl)-1-(4-(trifluoromethyl)phenyl)-2,3-dihydroquinazolin-4(1H)-one] displayed an EC50 in assay [1] of 1 to 20 µM. Same read-out and setting: in the case of `CNC(=O)CN1CN(c2ccc(C(F)(F)F)cc2)c2ccccc2C1=O` [Cpd. No. 6, N-methyl-2-(4-oxo-1-(4-(trifluoromethyl)phenyl)-1,4-dihydroquinazolin-3(2H)-yl)acetamide] it was greater than 20 µM.

The molecule `O=C(O)CN1CN(c2ccc(C(F)(F)F)cc2)c2ccccc2C1=O` [Cpd. No. 3, 2-(4-oxo-1-(4-(trifluoromethyl)phenyl)-1,4-dihydroquinazolin-3(2H)-yl)acetic acid] came in with a concentration for a half-maximal effect (EC50) in assay [1] of 1 to 20 µM. Same read-out and setting: for `NC(=O)CN1CN(c2ccc(C(F)(F)F)cc2)c2ccccc2C1=O` [Cpd. No. 5, 2-(4-oxo-1-(4-(trifluoromethyl)phenyl)-1,4-dihydroquinazolin-3(2H)-yl)acetamide] the value was greater than 20 µM; for `O=C1c2ccccc2N(c2ccc(C(F)(F)F)cc2)CN1CCO` [Cpd. No. 4, 3-(2-hydroxyethyl)-1-(4-(trifluoromethyl)phenyl)-2,3-dihydroquinazolin-4(1H)-one], 1 to 20 µM.
